# Active and inactive are the calls of the source. The rule behind the calls is not given here.
# Tested on: CCRIS mutagenicity, Ames/micronucleus/aberration tests
# Experiment: CCRIS mutagenicity studies
compound,measurement,setting,value
C1COCCO1,mutagenic call,"End Point: IN VITRO CHROMOSOMAL ABERRATIONS, Test System: CHINESE HAMSTER OVARY CELLS, Metabolic Activation: NONE",inactive; negative
same,mutagenic call,"End Point: IN VITRO CHROMOSOMAL ABERRATIONS, Test System: CHINESE HAMSTER OVARY CELLS, Metabolic Activation: RAT, LIVER, S-9, AROCLOR 1254",inactive; negative
same,mutagenic call,"End Point: IN VIVO MICRONUCLEUS, Test System: BONE MARROW ERYTHROCYTES, Species: MOUSE, Strain/Sex: CD-1/MALE, Route: ORAL (GAVAGE)",active; positive
same,mutagenic call,"End Point: IN VIVO MICRONUCLEUS, Test System: HEPATOCYTES (BRDU-LABELING), Species: MOUSE, Strain/Sex: CD-1/MALE, Route: ORAL (GAVAGE)",active; positive
same,mutagenic call,"Test System: AMES SALMONELLA TYPHIMURIUM, Strain/Indicator: TA98, Metabolic Activation: HAMSTER LIVER S-9, PHENOBARBITAL AND BETA-NAPHTHOFLAVONE (10%), Method: PREINCUBATION",inactive; negative
same,mutagenic call,"Test System: AMES SALMONELLA TYPHIMURIUM, Strain/Indicator: TA98, Metabolic Activation: HAMSTER LIVER S-9, PHENOBARBITAL AND BETA-NAPHTHOFLAVONE (30%), Method: PREINCUBATION",inactive; negative
same,mutagenic call,"Test System: AMES SALMONELLA TYPHIMURIUM, Strain/Indicator: TA98, Metabolic Activation: NONE, Method: GAS EXPOSURE",inactive; negative
same,mutagenic call,"Test System: AMES SALMONELLA TYPHIMURIUM, Strain/Indicator: TA98, Metabolic Activation: NONE, Method: PREINCUBATION",inactive; negative
same,mutagenic call,"Test System: AMES SALMONELLA TYPHIMURIUM, Strain/Indicator: TA98, Metabolic Activation: NONE, Method: STANDARD PLATE",inactive; negative
same,mutagenic call,"Test System: AMES SALMONELLA TYPHIMURIUM, Strain/Indicator: TA98, Metabolic Activation: RAT LIVER S-9, PHENOBARBITAL AND 5,6-BENZOFLAVONE, Method: PREINCUBATION",inactive; negative
same,mutagenic call,"Test System: AMES SALMONELLA TYPHIMURIUM, Strain/Indicator: TA98, Metabolic Activation: RAT LIVER S-9, PHENOBARBITAL AND 5,6-BENZOFLAVONE, Method: STANDARD PLATE",inactive; negative
same,mutagenic call,"Test System: AMES SALMONELLA TYPHIMURIUM, Strain/Indicator: TA98, Metabolic Activation: RAT LIVER S-9, PHENOBARBITAL AND BETA-NAPHTHOFLAVONE (10%), Method: PREINCUBATION",inactive; negative
same,mutagenic call,"Test System: AMES SALMONELLA TYPHIMURIUM, Strain/Indicator: TA98, Metabolic Activation: RAT LIVER S-9, PHENOBARBITAL AND BETA-NAPHTHOFLAVONE (30%), Method: PREINCUBATION",inactive; negative
same,mutagenic call,"Test System: AMES SALMONELLA TYPHIMURIUM, Strain/Indicator: TA98, Metabolic Activation: RAT LIVER S-9, PHENOBARBITAL AND BETA-NAPHTHOFLAVONE, Method: GAS EXPOSURE",inactive; negative
same,mutagenic call,"Test System: AMES SALMONELLA TYPHIMURIUM, Strain/Indicator: TA100, Metabolic Activation: HAMSTER LIVER S-9, PHENOBARBITAL AND BETA-NAPHTHOFLAVONE (10%), Method: PREINCUBATION",inactive; negative
same,mutagenic call,"Test System: AMES SALMONELLA TYPHIMURIUM, Strain/Indicator: TA100, Metabolic Activation: HAMSTER LIVER S-9, PHENOBARBITAL AND BETA-NAPHTHOFLAVONE (30%), Method: PREINCUBATION",inactive; negative
same,mutagenic call,"Test System: AMES SALMONELLA TYPHIMURIUM, Strain/Indicator: TA100, Metabolic Activation: NONE, Method: GAS EXPOSURE",inactive; negative
same,mutagenic call,"Test System: AMES SALMONELLA TYPHIMURIUM, Strain/Indicator: TA100, Metabolic Activation: NONE, Method: PREINCUBATION",inactive; negative
same,mutagenic call,"Test System: AMES SALMONELLA TYPHIMURIUM, Strain/Indicator: TA100, Metabolic Activation: NONE, Method: STANDARD PLATE",inactive; negative
same,mutagenic call,"Test System: AMES SALMONELLA TYPHIMURIUM, Strain/Indicator: TA100, Metabolic Activation: RAT LIVER S-9, PHENOBARBITAL AND 5,6-BENZOFLAVONE, Method: PREINCUBATION",inactive; negative
same,mutagenic call,"Test System: AMES SALMONELLA TYPHIMURIUM, Strain/Indicator: TA100, Metabolic Activation: RAT LIVER S-9, PHENOBARBITAL AND 5,6-BENZOFLAVONE, Method: STANDARD PLATE",inactive; negative
same,mutagenic call,"Test System: AMES SALMONELLA TYPHIMURIUM, Strain/Indicator: TA100, Metabolic Activation: RAT LIVER S-9, PHENOBARBITAL AND BETA-NAPHTHOFLAVONE (10%), Method: PREINCUBATION",inactive; negative
same,mutagenic call,"Test System: AMES SALMONELLA TYPHIMURIUM, Strain/Indicator: TA100, Metabolic Activation: RAT LIVER S-9, PHENOBARBITAL AND BETA-NAPHTHOFLAVONE (30%), Method: PREINCUBATION",inactive; negative
same,mutagenic call,"Test System: AMES SALMONELLA TYPHIMURIUM, Strain/Indicator: TA100, Metabolic Activation: RAT LIVER S-9, PHENOBARBITAL AND BETA-NAPHTHOFLAVONE, Method: GAS EXPOSURE",inactive; negative
same,mutagenic call,"Test System: AMES SALMONELLA TYPHIMURIUM, Strain/Indicator: TA1535, Metabolic Activation: HAMSTER LIVER S-9, PHENOBARBITAL AND BETA-NAPHTHOFLAVONE (10%), Method: PREINCUBATION",inactive; negative
same,mutagenic call,"Test System: AMES SALMONELLA TYPHIMURIUM, Strain/Indicator: TA1535, Metabolic Activation: HAMSTER LIVER S-9, PHENOBARBITAL AND BETA-NAPHTHOFLAVONE (30%), Method: PREINCUBATION",inactive; negative
same,mutagenic call,"Test System: AMES SALMONELLA TYPHIMURIUM, Strain/Indicator: TA1535, Metabolic Activation: NONE, Method: GAS EXPOSURE",inactive; negative
same,mutagenic call,"Test System: AMES SALMONELLA TYPHIMURIUM, Strain/Indicator: TA1535, Metabolic Activation: NONE, Method: PREINCUBATION",inactive; negative
same,mutagenic call,"Test System: AMES SALMONELLA TYPHIMURIUM, Strain/Indicator: TA1535, Metabolic Activation: NONE, Method: STANDARD PLATE",inactive; negative
same,mutagenic call,"Test System: AMES SALMONELLA TYPHIMURIUM, Strain/Indicator: TA1535, Metabolic Activation: RAT LIVER S-9, PHENOBARBITAL AND 5,6-BENZOFLAVONE, Method: PREINCUBATION",inactive; negative
same,mutagenic call,"Test System: AMES SALMONELLA TYPHIMURIUM, Strain/Indicator: TA1535, Metabolic Activation: RAT LIVER S-9, PHENOBARBITAL AND 5,6-BENZOFLAVONE, Method: STANDARD PLATE",inactive; negative
same,mutagenic call,"Test System: AMES SALMONELLA TYPHIMURIUM, Strain/Indicator: TA1535, Metabolic Activation: RAT LIVER S-9, PHENOBARBITAL AND BETA-NAPHTHOFLAVONE (10%), Method: PREINCUBATION",inactive; negative

# — PubChem BioAssay AID1259407 (Chemical Carcinogenesis Research Information System (CCRIS), 2018)
